Source: patent US20080070852A1, “3-Beta-D-Ribofuranosylthiazolo[ 4,5-D] Pyridimine Nucleosides and Uses Thereof” (priority 2004, published 2008)
Where “and” joins values, the source holds several entries; their conditions need not be identical. Identical values can stand only once. Entries after “also recorded” stand apart in the source; their conditions may differ. Counter-ions that a name gives are not always drawn. One block for each compound: values may come before it.

Tests used:
[1] = system: interferon alpha (Mu-IFN-α); assay: Murine interferon alpha in plasma of dosed mice; format: in vivo; conditions: for Plasma Concentration of Interferon Alpha (Mu-IFN-α), Mean / Plasma Concentration of Interferon Alpha (Mu-IFN-α), Individual Value: single oral 73.0 mg/kg dose
Excerpt: The normal mouse provides a useful system for the assessment of the degree to which the inventions described herein provide material improvement in the oral delivery of 1 (isatoribine). Not only can one measure the plasma concentrations of isatoribine arising from oral administration of the said prodrug(s) but also the extensive immunological research conducted in the mouse has provided reagents suitable for measuring the levels of interferon alpha, a cytokine of interest reflecting one of the desired biologic activities of isatoribine.
Table 1 records the results of an assay for murine interferon alpha in the plasma of mice that were dosed two times with isatoribine, formulated in bicarbonate, at a level of 50 mg/kg by the oral route.
Table 2 records the results of assays for murine interferon alpha in the plasma of mice that first were dosed with bicarbonate and then four hours later were dosed orally with isatoribine, formulated in bicarbonate, at a level of 50 mg/kg. Interferon was reported in the plasma from four mice, including two that had received the bicarbonate vehicle dose.
Table 3 records the results of assays for murine interferon alpha in the plasma of mice that were dosed orally with val-isatoribine, dissolved in bicarbonate, at a dose that is equivalent to 50/mg/kg of isatoribine on a molar basis. […] Interferon was detected in all mice assayed at a given time point, indicating the reliability of the effect following val-isatoribine administration.
In other experiments, plasma levels of isatoribine and interferon alpha were measured in mice that were dosed with isatoribine by the intravenous route, and these levels were compared to the levels of isatoribine and interferon alpha arising after oral administration of val-isatoribine. […] Thus, oral val-isatoribine provides levels of isatoribine and interferon that are approximately 50% of those observed after intravenous administration of isatoribine itself.

[2] = Systemic exposure to isatoribine after oral administration to beagle dogs; format: in vivo; conditions: both 10 and 50 mg/kg
Protocol: The effect of a prodrug (val-isatoribine, 3) on the systemic exposure to isatoribine (1) after oral administration to beagle dogs was investigated. Isatoribine was prepared in sodium bicarbonate solution.
Four male and four female adult beagle dogs weighing between 15 to 27 kg and approximately 1-2 years old were used at the beginning of the study. The animals were divided into 2 groups of 2 males and 2 females each. The test material was administered by gavage on Days 1 and 8, allowing a 7-day washout period between administrations. Blood samples (2 mL) were collected from each animal at predose, 15, 30 minutes, 1, 2, 3, 4, 6, 8 and 10 hours into lithium heparin tubes after each dosing. The plasma was frozen at −70° C. until analysis. The plasma was analyzed for isatoribine by an HPLC-MS/MS assay.

[3] = system: beagle dogs; assay: Toxicology studies in beagle dogs (GI tolerance); conditions: dogs; for Emesis or loose stool / GI lesions or irritation: Oral Val-Isatoribine
Protocol: Formal toxicology studies of intravenously administered isatoribine and orally administered isatoribine and val-isatoribine were conducted in beagle dogs.
In each case the compound was administered as a solution, by gavage or by intravenous infusion. Multiple parameters were assessed, as is customary in a toxicology study. In the studies providing higher potential exposure to isatoribine, the plasma concentration of isatoribine was assessed by a LC/MS method.

[4] = in vitro; format: in vitro ADME; conditions: human, Caco-2
Excerpt: (§1) See, e.g., Hilgers, A. R. et al., Pharm. Res., 20(8), 1149-55 (August 2003).

[5] = system: Caco-2 cells; assay: in vitro; format: in vitro ADME; conditions: human
Excerpt: as §1

[6] = oral dosing, studies of Tables 1-3
[7] = isatoribine equivalent applied dose 8.1 mg/kg
[8] = isatoribine equivalent applied dose 16 mg/kg
[9] = isatoribine equivalent applied dose 32 mg/kg
[10] = isatoribine equivalent applied dose 64 mg/kg

melting point: > 108 °C
Structure (SMILES): CNc1nc(N)nc2c1sc(=O)n2[C@@H]1O[C@H](CO)[C@@H](O)[C@H]1O [Compound 18]

melting point: > 112 °C
Structure (SMILES): CN(C)c1nc(N)nc2c1sc(=O)n2[C@@H]1O[C@H](CO)[C@@H](O)[C@H]1O [Compound 20, 5-Amino-7-dimethylamino-3-β-D-ribofuranosylthiazolo[4,5-d]pyrimidin-2-one]

melting point: > 108 °C (dec.)
Structure (SMILES): Nc1nc(NC2CCCC2)c2sc(=O)n([C@@H]3O[C@H](CO)[C@@H](O)[C@H]3O)c2n1 [Compound 22, 5-Amino-7-cyclopentylamino-3-β-D-ribofuranosylthiazolo[4,5-d]pyrimidin-2-one]

melting point: > 112.4 °C (dec.)
Structure (SMILES): Nc1nc(N2CCCC2)c2sc(=O)n([C@@H]3O[C@H](CO)[C@@H](O)[C@H]3O)c2n1 [Compound 23, 5-Amino-7-pyrrolidino-3-β-D-ribofuranosylthiazolo[4,5-d]pyrimidin-2-one]

Papp A→B [4]: 60 ×10⁻⁶ cm/s | Caco2 transport compared with 79 [5]: significantly improved transport over 79 | melting point: 121 to 123 °C
Structure (SMILES): CC(=O)OC[C@H]1O[C@@H](n2c(=O)sc3cnc(N)nc32)[C@H](OC(C)=O)[C@@H]1OC(C)=O [Compound 78, 5-Amino-3-(2′,3′,5′-tri-O-acetyl-β-D-ribofuranosyl)-3H-thiazolo[4,5-d]pyrimidin-2-one]

Papp A→B [4]: 10 ×10⁻⁶ cm/s | melting point: 220 °C (dec.)
Structure (SMILES): Nc1ncc2sc(=O)n([C@@H]3O[C@H](CO)[C@@H](O)[C@H]3O)c2n1 [Compound 79, 5-Amino-3-β-D-ribofuranosyl-3H-thiazolo-[4,5-d]pyrimidin-2-one]

Papp A→B [4]: 20 ×10⁻⁶ cm/s | Caco2 transport compared with 79 [5]: significantly improved transport over 79 | melting point: 109 to 111 °C
Structure (SMILES): CC(=O)O[C@@H]1[C@H](OC(C)=O)[C@@H](CO)O[C@H]1n1c(=O)sc2cnc(N)nc21 [Compound 89, 5-Amino-3-(2′,3′-di-O-acetyl-β-D-ribofuranosyl)-3H-thiazolo[4,5-d]pyrimidin-2-one]

Further lines, the compound ahead of its results:

Structure (SMILES): CC(C)[C@H](N)C(=O)OC[C@H]1O[C@@H](n2c(=O)sc3c(O)nc(N)nc32)[C@H](O)[C@@H]1O (as salt: hydrochloride) [Compound 3, 5-Amino-3-(5′-O-L-valinyl-β-D-ribofuranosyl)thiazolo[4,5-d]pyrimidine-2,7-dione Dihydrochloride]
melting point: 166 to 168 °C (dec.)

Structure (SMILES): CN[C@H](C(=O)OC[C@H]1O[C@@H](n2c(=O)sc3c(O)nc(N)nc32)[C@H](O)[C@@H]1O)C(C)C (as salt: hydrochloride) [Compound 11, 5-Amino-3-(5′-O-[α-L-N-methylvalinyl]-β-D-ribofuranosyl)thiazolo[4,5-d]pyrimidine-2,7-dione Hydrochloride]
melting point: > 180 °C (dec.)

Structure (SMILES): CC(C)[C@H](N)C(=O)OC[C@H]1O[C@@H](n2c(=O)sc3c(O)nc(N)nc32)[C@H](O)[C@@H]1O [Compound 3, 5-Amino-3-(5′-O-L-valinyl-β-D-ribofuranosyl)thiazolo[4,5-d]pyrimidine-2,7-dione Dihydrochloride]
increase of magnitude of average and peak interferon response versus isatoribine ([1]; mice, oral): twofold | level of interferon relative to intravenous isatoribine ([1]; mice, oral, 50 mg/kg isatoribine molar equivalent, vs intravenous isatoribine 25 mg/kg, FIG. 1): approximately 50% | interferon in plasma ([1]; mice, oral, equivalent to 50 mg/kg isatoribine): readily measurable at 1.0 hour, 1.5 hours, and 2.0 hours after dosing | Plasma Concentration of Interferon Alpha (Mu-IFN-α), Mean ([1]; mice, 0.00 h): 0.00 pg/mL | Plasma Concentration of Interferon Alpha (Mu-IFN-α), Individual Value ([1]; mice, 0.00 h, listed as Val-Isatoribine, Dihydrochloride, 73 mg/kg): BQL (Below the Quantifiable Limit < 12.5 pg/mL); also recorded: BQL^125 pg/mL; also recorded: BQL^25 pg/mL | Plasma Concentration of Interferon Alpha (Mu-IFN-α), Individual Value ([1]; mice, 0.25 h): BQL (Below the Quantifiable Limit < 12.5 pg/mL) | Plasma Concentration of Interferon Alpha (Mu-IFN-α), Mean ([1]; mice, 0.25 h): 0.00 pg/mL | Plasma Concentration of Interferon Alpha (Mu-IFN-α), Mean ([1]; mice, 0.50 h): 0.00 pg/mL | Plasma Concentration of Interferon Alpha (Mu-IFN-α), Individual Value ([1]; mice, 0.50 h, listed as Val-Isatoribine, Dihydrochloride, 73 mg/kg): BQL^25 pg/mL; also recorded: BQL (Below the Quantifiable Limit < 12.5 pg/mL) | Plasma Concentration of Interferon Alpha (Mu-IFN-α), Mean ([1]; mice, 0.75 h): 0.00 pg/mL | Plasma Concentration of Interferon Alpha (Mu-IFN-α), Individual Value ([1]; mice, 0.75 h, listed as Val-Isatoribine, Dihydrochloride, 73 mg/kg): BQL (Below the Quantifiable Limit < 12.5 pg/mL); also recorded: BQL^25 pg/mL | Plasma Concentration of Interferon Alpha (Mu-IFN-α), Mean ([1]; mice, 1.00 h): 129.1 pg/mL | Plasma Concentration of Interferon Alpha (Mu-IFN-α), Individual Value ([1]; mice, 1.00 h, listed as Val-Isatoribine, Dihydrochloride, 73 mg/kg): 173.2 pg/mL and 125.1 pg/mL and 89.0 pg/mL | Plasma Concentration of Interferon Alpha (Mu-IFN-α), Mean ([1]; mice, 1.50 h): 214.5 pg/mL | Plasma Concentration of Interferon Alpha (Mu-IFN-α), Individual Value ([1]; mice, 1.50 h, listed as Val-Isatoribine, Dihydrochloride, 73 mg/kg): 202.9 pg/mL and 145.9 pg/mL and 294.8 pg/mL | Plasma Concentration of Interferon Alpha (Mu-IFN-α), Mean ([1]; mice, 2.00 h): 108.5 pg/mL | Plasma Concentration of Interferon Alpha (Mu-IFN-α), Individual Value ([1]; mice, 2.00 h, listed as Val-Isatoribine, Dihydrochloride, 73 mg/kg): 49.2 pg/mL and 137.9 pg/mL and 138.3 pg/mL | Plasma Concentration of Interferon Alpha (Mu-IFN-α), Individual Value ([1]; mice, 3.00 h): BQL^25 pg/mL | Plasma Concentration of Interferon Alpha (Mu-IFN-α), Mean ([1]; mice, 3.00 h): 0.00 pg/mL | Plasma Concentration of Interferon Alpha (Mu-IFN-α), Mean ([1]; mice, 4.00 h): 9.20 pg/mL | Plasma Concentration of Interferon Alpha (Mu-IFN-α), Individual Value ([1]; mice, 4.00 h, listed as Val-Isatoribine, Dihydrochloride, 73 mg/kg): BQL^25 pg/mL and 27.6 pg/mL and BQL (Below the Quantifiable Limit < 12.5 pg/mL) | Plasma Concentration of Interferon Alpha (Mu-IFN-α), Mean ([1]; mice, 5.00 h): 0.00 pg/mL | Plasma Concentration of Interferon Alpha (Mu-IFN-α), Individual Value ([1]; mice, 5.00 h, listed as Val-Isatoribine, Dihydrochloride, 73 mg/kg): BQL (Below the Quantifiable Limit < 12.5 pg/mL); also recorded: BQL^25 pg/mL | mice with interferon detected in plasma [1, 6]: 10 of the 30 | proportion of mice exhibiting an interferon response [1, 6]: 30% | maximum concentrations of isatoribine compared to isatoribine itself [2]: at least doubled | GI lesions ([3]; oral): No GI lesions were found | Emesis or loose stool [3, 7]: Neg. | GI lesions or irritation [3, 7]: Neg. | Emesis or loose stool [3, 8]: Neg. | GI lesions or irritation [3, 8]: Neg. | Emesis or loose stool [3, 9]: Neg. | GI lesions or irritation [3, 9]: Neg. | Emesis or loose stool [3, 10]: Neg. | GI lesions or irritation [3, 10]: Neg. | GI lesions or irritation ([3]; isatoribine equivalent applied dose 130 mg/kg): Neg. | GI lesions or irritation ([3]; isatoribine equivalent applied dose 260 mg/kg): Neg. | GI lesions or irritation ([3]; isatoribine equivalent applied dose 390 mg/kg): Neg.

Structure (SMILES): COc1nc(N)nc2c1sc(=O)n2[C@@H]1O[C@H](CO)[C@@H](O)[C@H]1O [Compound 14, 5-Amino-3-β-D-ribofuranosyl-7-methoxy-thiazolo[4,5-d]pyrimidin-2-one]
melting point: > 160 °C (dec.)

Structure (SMILES): Nc1nc(N)c2sc(=O)n([C@@H]3O[C@H](CO)[C@@H](O)[C@H]3O)c2n1 [Compound 15, 5,7-Diamino-3-β-D-ribofuranosylthiazolo[4,5-d]pyrimidin-2-one]
melting point: > 155 °C (dec.)
